Source: article PMC12498288 (Frontiers in Immunology, 2025)
Values joined by “and” are separate entries in the source; they are usually repeats but may differ in a detail not shown here. Identical values can stand only once. Like-named read-outs stand apart in the source and are kept apart here.

What was measured:
[1] = system: cytokine and chemokine gene expression; assay: LPS-induced acute lung injury (ALI) mouse model, lung cytokine/chemokine mRNA (RT2 profiler PCR array)
[2] = system: SARS-CoV-2 (BetaCoV/Munich/BavPat1/2020)
HCoV OC43 = assay: Virus yield reduction assay, HCoV-OC43 on MRC-5 cells (RT-qPCR); type: cell-based; conditions: Betacoronavirus 1, OC43, MRC5, MOI 0.1, 24 h
Procedure: The virus yield reduction assay of HCoV-229E and HCoV-OC43 was performed on MRC-5 cells seeded at 1.5x10^5 cells per well in 24-well plates 24 h prior infection with HCoV-229E (MOI 0.001) or HCoV-OC43 (MOI 0.1) for 1 h. The inoculum was completely removed, and the cells were treated with different concentrations of zapnometinib (50 µM to 0.006 µM) and a solvent control in Iscove’s Modified Dulbecco’s Medium (IMDM) containing 2% FBS, 1% Penicillin/Streptomycin at 34°C, 5% CO2 for 24 h (HCoV-OC43) or 48 h (HCoV-229E). Supernatants were harvested and the viral titer was determined by a real-time one-step multiplex RT-qPCR using specific primers targeting the N and NS2 genes for HCoV-229E and HCoV-OC43 respectively ( Supplementary Table 1 ) EC50 values were calculated based on the measured viral titers normalized to the solvent control (1% DMSO) and using the “log(inhibitor) vs. response - Variable slope (four parameters)” analysis in GraphPad Prism v9.

HMGB1, GLDH, SELP = assay: Candidate safety biomarker analysis in hamster serum (IA-LC-MS/MS); type: in vivo, Syrian hamsters
Procedure: Serum samples from hamsters collected at pre- infection (0 dpi) and post-infection (4 dpi) and treatment time points were analyzed to evaluate the levels of various candidate safety biomarkers. Serum proteins were enzymatically fragmented through proteolysis, and protein-specific peptides were targeted for quantification of the corresponding protein biomarker levels by immunoaffinity liquid chromatography tandem mass spectrometry (IA-LC-MS/MS) performed as described previously ([48], [49]). For further details, see Supplementary Methods .
The candidate protein biomarkers were quantified via specific peptides analyzed by immunoaffinity liquid chromatography tandem mass spectrometry (IA-LC-MS/MS) assays. For proteolysis, 10 μL of each serum sample was mixed with 50 μL of digestion buffer (100 mM triethanolamine and 0.5% (w/v) n-octylglucoside (NOG)), and proteolysis reagents were added to achieve a final sample volume of 100 µL. The proteolysis procedure included denaturation at 99 °C for 5 minutes, reduction in 5 mM tris(2-carboxyethyl)-phosphine at 22 °C for 5 minutes, alkylation in 10 mM iodoacetamide at 22 °C for 20 minutes and an overnight enzymatic fragmentation at 37 °C with a trypsin-to-protein ratio of 1:20 (assuming a concentration of 60 mg/mL protein in serum). […]
The following peptide transitions were monitored in the mass spectrometer : […] […]

Vero cells = conditions: Vero 24 h 5% FBS
[3] = system: lymphocytes, T cells and B cells; assay: RESPIRE Phase 2 trial, lymphocytes, T and B cells in blood (flow cytometry); type: in vivo, human; conditions: 30-day observation period
Procedure: Patients receiving glucocorticoids as standard of care treatment were excluded from the analyses. Experiments were performed by CheckImmune GmbH according to the companies’ SOPs. In short, presence of lymphocytes, T cells and B cells were determined using Flow cytometry analysis. Fresh whole blood from hospitalized SARS-CoV-2 infected patients was stained with the aforementioned DuraClone antibody panels for 15 min at room-temperature and lysed for 15 min at room temperature following the standard staining protocol. Sample acquisition was carried out using the Navios Flow Cytometer (Beckman Coulter). Data analysis was conducted using Kaluza software before being sent to the LIMS system. This procedure is fit for purpose validated under ISO and GCP guidelines.

[4] = set-up: method as in PMID 38106555; conditions: hospitalized COVID-19 patients; cited from earlier work
[5] = system: cytokine and chemokine levels; assay: RESPIRE Phase 2 trial, cytokines/chemokines in hospitalized COVID-19 patients (MesoScale V-Plex); type: in vivo, human; conditions: vs placebo
Source text: For standard of care treatment see Supplementary Table 5 .

Structure (SMILES): O=C(O)c1ccc(F)c(F)c1Nc1ccc(I)cc1Cl [zapnometinib]
- expression of most of the 84 genes (e.g. Il1b, IL-6, ccl2, cxcl1, cxcl10, ccl3) ([1]; 5 mg/kg LPS i.p., 25 mg/kg p.o. 1 h post-stimulation, lung, 6 h post treatment, vs control): downregulated
- Cxcl1 gene expression in lung tissue ([1]; 25 mg/kg p.o. 1 h after LPS): significantly reduced
- Il6 gene expression in lung tissue ([1]; 25 mg/kg p.o. 1 h after LPS): significantly reduced
- Tnf gene expression in lung tissue ([1]; 25 mg/kg p.o. 1 h after LPS): significantly reduced
- Ifna2 gene (IFN-α) expression ([1]; 25 mg/kg p.o. 1 h after LPS, lung, p = 0.118): not significantly downregulated
- tolerability ([2]; 100 mg/kg then 75 mg/kg daily p.o., both groups): well tolerated
- viral titers in nasal turbinates ([2]; […], did not reach statistical significance): trend toward lower mean viral titers
- lung inflammation (infiltrating inflammatory cells, consolidation, decreased air containing space) ([2]; hamster, in vivo): less severe
- mean body weight loss ([2]; hamster, in vivo): 8-11%
- mean viral titer in throat swabs ([2]; hamster, in vivo): still lower in the throat swabs of drug-treated animals, although no statistically significant differences
- percentage of lung injury in lung tissue (gross pathology) ([2]; hamster, in vivo): significantly reduced
- reduction in replication-competent virus in throat swabs (TCID50 assay) ([2]; hamster, in vivo): 1.1 log10 and 1.3 log10
- reduction of infectious viral titer in nasal turbinates (TCID50 assay) ([2]; hamster, in vivo): 1.3 log10
- reduction of viral load in nasal turbinates (RT-qPCR) ([2]; hamster, in vivo): 1.1 log10
- viral load in throat swabs ([2]; hamster, in vivo): comparable
- viral titer reduction (number of viral copies) in throat swabs (RT-qPCR) ([2]; hamster, in vivo): 1.1 log10 and 1.2 log10
- treatment-related adverse effects ([2]; zapnometinib-treated groups vs vehicle-treated group): no treatment-related adverse effects were observed
- EC50 (HCoV OC43): 16.1 µM and 6.6 µg/mL
- levels of safety biomarkers HMGB1, GLDH, SELP in serum (HMGB1, GLDH, SELP; 0 dpi vs 4 dpi, 100 mg/kg then 75 mg/kg from +4 or +24 h p.i.): no prominent changes
- toxicity of the treatment regimen (HMGB1, GLDH, SELP; 100 mg/kg followed by 75 mg/kg beginning at +4 or +24 h p.i.): not toxic
- %LDH release compared to maximum LDH release (Vero cells; 0.39 µM): 0.35%
- %LDH release compared to maximum LDH release (Vero cells; 0.78 µM): 0.41%
- %LDH release compared to maximum LDH release (Vero cells; 1.56 µM): 0.41%
- %LDH release compared to maximum LDH release (Vero cells; 3.13 µM): -0.37%
- %LDH release compared to maximum LDH release (Vero cells; 6.25 µM): 0.02%
- %LDH release compared to maximum LDH release (Vero cells; 12.50 µM): 0.31%
- %LDH release compared to maximum LDH release (Vero cells; 25.00 µM): 0.12%
- %LDH release compared to maximum LDH release (Vero cells; 50.00 µM): 0.49%
- %LDH release compared to maximum LDH release (Vero cells; 75.00 µM): 0.83%
- %LDH release compared to maximum LDH release (Vero cells; 100.00 µM): 1.44%
- Lymphocytes, Increase compared to Placebo [3]: 44.5%
- Plasma B cells, Increase compared to Placebo [3]: 61.8%
- Memory B cells, Increase compared to Placebo ([3]; p = 0.0377): -37.4%
- T cells, Increase compared to Placebo ([3]; p = 0.0409): 73.7%
- safety and tolerability [4]: safe and well-tolerated
- IL-8/CXCL-8 levels ([5]; up to day 30): slight but not statistically significant increase
- TNF-α levels ([5]; up to day 30): no changes
- MCP-1 levels ([5]; up to day 30, 900 mg D1 then 600 mg daily D2-6, p = <0.0001): significant reduction
- IL-6 levels ([5]; up to day 30, p = 0.0017): significantly reduced
- IFNγ levels ([5]; up to day 30, p = <0.0001): significant reduction
- MIP-1α levels ([5]; up to day 30, p = <0.0001): significant reduction
